Reference: US6306890A, “Esters derived from indolealkanols and novel amides derived from indolealkylamides that are selective COX-2 inhibitors” (Vanderbilt University, priority 1999, dated 2001)
Where two headings read alike, the source gives them in different places.

What was measured:
human COX-2 = molecular target: T1, human COX-2 (Homo sapiens, UniProt P35354); assay: Inhibition of purified human COX-2, TLC assay ([1-14C]-arachidonic acid), time-dependent; details: for Selectivity: COX-2 selectivity ratio, IC50 COX-1 / IC50 COX-2
T1 sequence (P35354 18-604): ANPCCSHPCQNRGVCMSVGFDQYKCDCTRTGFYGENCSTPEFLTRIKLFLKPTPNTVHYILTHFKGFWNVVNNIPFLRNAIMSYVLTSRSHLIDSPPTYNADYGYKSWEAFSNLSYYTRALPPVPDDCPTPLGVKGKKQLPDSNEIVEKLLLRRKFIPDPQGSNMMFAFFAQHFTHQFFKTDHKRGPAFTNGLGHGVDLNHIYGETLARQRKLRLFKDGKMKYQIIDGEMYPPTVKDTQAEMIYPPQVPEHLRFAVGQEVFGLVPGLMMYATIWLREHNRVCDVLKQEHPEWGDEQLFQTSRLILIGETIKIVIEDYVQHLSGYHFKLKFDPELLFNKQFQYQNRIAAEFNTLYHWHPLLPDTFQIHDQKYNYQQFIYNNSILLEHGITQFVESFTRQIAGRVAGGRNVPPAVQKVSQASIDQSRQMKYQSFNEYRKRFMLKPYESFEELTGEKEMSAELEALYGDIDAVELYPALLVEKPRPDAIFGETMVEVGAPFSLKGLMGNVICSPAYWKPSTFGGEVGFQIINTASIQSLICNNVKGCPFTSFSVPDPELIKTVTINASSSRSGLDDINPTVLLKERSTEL

ovine COX-1 = molecular target: T2, ovine COX-1 (Ovis aries, UniProt P05979); assay: Inhibition of ovine COX-1, TLC assay ([1-14C]-arachidonic acid), time-dependent
T2 sequence (P05979 25-600): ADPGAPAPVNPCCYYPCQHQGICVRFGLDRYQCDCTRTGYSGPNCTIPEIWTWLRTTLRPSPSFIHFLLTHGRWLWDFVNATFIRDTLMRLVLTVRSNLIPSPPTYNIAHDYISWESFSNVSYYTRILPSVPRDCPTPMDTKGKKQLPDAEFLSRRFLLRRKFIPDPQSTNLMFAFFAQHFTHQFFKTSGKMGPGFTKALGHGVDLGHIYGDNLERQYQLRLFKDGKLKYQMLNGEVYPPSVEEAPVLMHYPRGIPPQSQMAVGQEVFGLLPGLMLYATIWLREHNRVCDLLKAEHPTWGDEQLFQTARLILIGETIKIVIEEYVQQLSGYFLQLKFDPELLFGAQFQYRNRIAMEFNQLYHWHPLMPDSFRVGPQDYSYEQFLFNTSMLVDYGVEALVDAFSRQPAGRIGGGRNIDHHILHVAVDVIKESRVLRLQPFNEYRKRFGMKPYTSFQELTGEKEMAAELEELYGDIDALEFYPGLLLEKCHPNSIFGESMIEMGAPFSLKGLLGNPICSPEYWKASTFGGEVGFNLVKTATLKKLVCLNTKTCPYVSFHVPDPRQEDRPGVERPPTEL

[1] = molecular target: T3, COX-2 in activated RAW264.7 macrophages (Mus musculus, UniProt Q05769); assay: Inhibition of COX-2 activity (PGD2 production) in intact activated RAW264.7 cells; type: cell-based, murine; details: FIG. 1; inhibitor 0-1 μM, 30 minutes at 37° C.; LPS + IFN-γ activated
T3 construct: PGD2 from [1-14C]-arachidonic acid by TLC
T3 sequence (Q05769 18-604): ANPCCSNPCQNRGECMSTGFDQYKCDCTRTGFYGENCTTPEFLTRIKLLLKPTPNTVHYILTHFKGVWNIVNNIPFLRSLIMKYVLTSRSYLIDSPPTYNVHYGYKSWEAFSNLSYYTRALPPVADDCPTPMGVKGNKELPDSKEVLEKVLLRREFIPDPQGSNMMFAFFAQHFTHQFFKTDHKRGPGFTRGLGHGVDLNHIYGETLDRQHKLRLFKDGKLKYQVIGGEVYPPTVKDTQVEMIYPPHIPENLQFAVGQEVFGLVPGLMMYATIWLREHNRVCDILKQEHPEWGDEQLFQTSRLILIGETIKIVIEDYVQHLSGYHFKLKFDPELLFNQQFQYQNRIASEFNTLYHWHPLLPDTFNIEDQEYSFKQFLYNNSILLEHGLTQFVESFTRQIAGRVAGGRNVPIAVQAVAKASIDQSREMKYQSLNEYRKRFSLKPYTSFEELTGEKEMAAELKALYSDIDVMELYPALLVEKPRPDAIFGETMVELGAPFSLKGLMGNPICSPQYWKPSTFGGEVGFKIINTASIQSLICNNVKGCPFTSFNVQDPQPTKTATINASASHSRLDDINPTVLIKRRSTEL
Method: The ability of these compounds to inhibit COX-2 in intact cells was assayed in activated RAW264.7 macrophages in which COX-2 activity was induced by pathologic stimuli. The macrophages were treated with lipopolysaccharide ([…]) and γ-interferon (10 U/mL) for 7.5 hours to induce COX-2 and then treated with several concentrations of each of inventive Compounds 5c, 5e, and 9e.
More specifically, low passage number murine RAW264.7 cells were grown in DMEM containing 10% heat-inactivated FBS. Cells (6.2×10^6 cells/T25 flask) were activated with 500 ng/mL LPS and 10 units/mL IFN-γ in serum-free DMEM for 7 hours. Vehicle (DMSO) or inhibitor (inventive Compound 5c, 5e, or 9e) in DMSO (0-1 μM) was added for 30 minutes at 37° C. […] Aliquots (200 μL) were removed into termination solution and total products were quantitatively determined by the TLC assay as described earlier.

[2] = test system: carrageenan-induced rat foot paw edema; assay: Carrageenan-induced rat foot paw edema assay; type: in vivo, rat (male Sprague Dawley); details: FIG. 2 / FIG. 3; gavage 1 hour after carrageenan, paw volume at 3 hour post-injection
Method: All procedures were performed according to approved animal protocols (#M/98/251, Vanderbilt University Animal Care Committee). Male Sprague Dawley rats (Harlan Sprague Dawley, Indianapolis, Ind.) (150-175 grams) were fasted for 18 hours and then injected with λ-carrageenan (0.1 ml of a 1% suspension in 0.85% saline, Fluka BioChemika, Milwaukee, Wis.) into the right hind footpad. After 1 hour, 90 μl inhibitor (either Compound 5c or Compound 9e) in DMSO was added to 6 ml corn oil, and the rats were gavaged with 0.5 ml corn oil containing DMSO or containing DMSO and inhibitor.
The ipsilateral footpad volume was measured with a water displacement plethysmometer (Ugo Basile, Italy, distributed by Stoelting Co., Wood Dale, Ill.) at 3 hour post-injection and compared to the initial pre-injection paw volume. Inhibitor concentrations were varied as shown in FIG. 2 (Compound 5c) and FIG. 3 (Compound 9e), with n=6 animals per group in duplicate experiments.

| Compound | Selectivity (human COX-2; Table 1 esters) | IC50 (human COX-2) [µM] | IC50 (ovine COX-1) [µM] | also measured |
| --- | --- | --- | --- | --- |
| CCCCC(=O)OCCc1c(C)n(C(=O)c2ccc(Cl)cc2)c2ccc(OC)cc12 [Compound 5a, N-(p-chlorobenzoyl)-5-methoxy-2-methylindole-3-ethyl-valerate] | > 1015 |  |  | IC50 (human COX-2; read-out: IC50 COX-2, Table 1 esters, time-dependent inhibition, [1-14C]-arachidonic acid 50 μM, 37° C., 30 seconds, duplicate): 0.65 µM; IC50 (ovine COX-1; read-out: IC50 COX-1, Table 1 esters, ovine COX-1 (44 nM) preincubated 25° C. 15 min, [1-14C]-arachidonic acid 50 μM, 37° C., 30 seconds, duplicate): > 66 µM |
| COc1ccc2c(c1)c(CCOC(=O)c1ccc(C)cc1)c(C)n2C(=O)c1ccc(Cl)cc1 [Compound 5b, N-(pchlorobenzoyl)-5-methoxy-2-methylindole-ethyl-(p-methyl)benzoate] | > 1320 | 0.05 | > 66 |  |
| COc1ccc(C(=O)OCCc2c(C)n(C(=O)c3ccc(Cl)cc3)c3ccc(OC)cc23)cc1 [Compound 5c, N-(p-chlorobenzoyl)-5-methoxy-2-methylindole-3ethylo-(p-methoxy)benzoate] | > 1466 | 0.04 | > 66 | inhibition of production of PGD2 [1]: inhibition of production of PGD2; inhibition of edema in the rat footpad [2]: inhibition of edema in the rat footpad |
| COc1ccc2c(c1)c(CCOC(=O)c1ccccc1OC)c(C)n2C(=O)c1ccc(Cl)cc1 [Compound 5d, N-(pchlorobenzoyl)-5-methoxy-2-methylindole-3thyl-(o-methoxy)benzoate] | > 1320 | 0.05 | > 66 |  |
| COc1ccc2c(c1)c(CCOC(=O)c1ccc(Cl)cc1)c(C)n2C(=O)c1ccc(Cl)cc1 [Compound 5e, N -(p-chlorobenzoyl)-5-methoxy-2-methylindole-3-ethyl-(p-chloro)benzoate] | > 1320 | 0.05 | > 66 | inhibition of production of PGD2 [1]: inhibition of production of PGD2 |
| COc1ccc2c(c1)c(CCOC(=O)c1ccc(Br)cc1)c(C)n2C(=O)c1ccc(Cl)cc1 [Compound 5f, N-(p-Chlorobenzoyl)-5-methoxy-2-methylindole-3-ethyl-(p-bromo)benzoate] | > 1466 | 0.04 | > 66 |  |
| COc1ccc2c(c1)c(CCOC(=O)c1ccc(I)cc1)c(C)n2C(=O)c1ccc(Cl)cc1 [Compound 5g, N-(phlorobenzoyl)-5-methoxy-2-methylindole-3-ethyl(-p-iodo)benzoate] | > 1320 | 0.05 | > 66 |  |
| COc1ccc2c(c1)c(CCOC(=O)c1ccc(Cl)cc1)c(C)n2Cc1ccc(Br)cc1 [Compound 5h, N-(p-bromobenzyl)-5-methoxy-2-methylindole-3-ethyl-(p-chloro)benzoate] |  |  | > 66 |  |
| N-(p-chlorobenzoyl)-5-methoxy-2-methylindole-3-ethyl-(2-phenyl)ethylamide [Compound 9i] |  |  |  | Selectivity (human COX-2; inventive amides table): ~ 425; IC50 (human COX-2; read-out: IC50 COX-2, inventive amides table): ~0.04 µM; IC50 (ovine COX-1; read-out: IC50 COX-1, inventive amides table): ~17 µM |

Continued, in another order:

| Selectivity (human COX-2; Table 1 esters) | IC50 (human COX-2) [µM] | IC50 (ovine COX-1) [µM] | Compound | also measured |
| --- | --- | --- | --- | --- |
|  | 0.05 | 4 | COc1ccc2c(c1)c(CCNC(=O)c1ccc(Cl)cc1)c(C)n2C(=O)c1ccc(Cl)cc1 [Compound 9e, N-(p-chlorobenzoyl)-5-methoxy-2-methylindole-3-ethyl-(p-chloro)benzamide] | Selectivity (human COX-2; inventive amides table): 80; inhibition of production of PGD2 [1]: inhibition of production of PGD2; inhibition of edema in the rat footpad [2]: inhibition of edema in the rat footpad |
|  |  | > 66 | COc1ccc2c(c1)c(CCNC(=O)c1ccc(Cl)cc1)c(C)n2Cc1ccc(Br)cc1 [Compound 9h, N-(p-bromobenzyl)-5-methoxy-2-methylindole-3-ethyl(p-chloro) benzamide] |  |
